Measurements from PubChem BioAssay (NCI).
Several values for one entry are separate records, joined by “and”; a condition that tells them apart may be missing. Equal entries are not always repeated.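 Cells were grown in 96-well plates and exposed to each compound for 48 hours at five concentrations; endpoints were interpolated linearly between bracketing concentrations, or set to the highest concentration if not reached. GI50 is the concentration that inhibits growth by half. TGI is the concentration that stops growth completely.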

Assays:
Assay in all cases: growth of human tumour cells (NCI), 48 h
RPMI-8226 leukemia = test system: RPMI-8226 leukemia
LOX IMVI melanoma = test system: LOX IMVI melanoma
HCC-2998 colon = test system: HCC-2998 colon
HOP-92 NSCLC = test system: HOP-92 NSCLC
KM12 colon = test system: KM12 colon
HCT-116 colon = test system: HCT-116 colon
HL-60(TB) leukemia = test system: HL-60(TB) leukemia
UO-31 renal = test system: UO-31 renal
SR leukemia = test system: SR leukemia

| Structure (SMILES) | TGI (RPMI-8226 leukemia) | TGI (LOX IMVI melanoma) | TGI (HCC-2998 colon) [µM] | TGI (HOP-92 NSCLC) | TGI (KM12 colon) [µM] | TGI (HCT-116 colon) | TGI (HL-60(TB) leukemia) [µM] | TGI (UO-31 renal) | TGI (SR leukemia) [µM] | GI50 (HCC-2998 colon) [µM] | GI50 (HOP-92 NSCLC) [µM] | GI50 (KM12 colon) [µM] | GI50 (HL-60(TB) leukemia) [µM] | GI50 (UO-31 renal) [µM] | GI50 (RPMI-8226 leukemia) [µM] | GI50 (SR leukemia) [µM] | GI50 (LOX IMVI melanoma) [µM] | GI50 (HCT-116 colon) [µM] |
| --- | --- | --- | --- | --- | --- | --- | --- | --- | --- | --- | --- | --- | --- | --- | --- | --- | --- | --- |
| CSC(=NC(=O)c1ccccc1Cl)SCCSC(=NC(=O)c1ccccc1Cl)SC | > 100 µM | > 100 µM | > 100 | > 100 µM | > 100 | > 100 µM | > 100 | > 100 µM | – | – | – | – | – | – | – | – | – | – |
| CC(Oc1ccc2c(-c3ccc(Cl)cc3)cc(=O)oc2c1)C(=O)O (stereo not given) | – | > 100 µM | > 100 | > 100 µM | > 100 | > 100 µM | > 100 | > 100 µM | > 100 | – | – | – | – | – | – | – | – | – |
| COc1ccc(C(=O)C2CCC(C(=O)O)C2)cc1 (stereo not given) | > 100 µM | > 100 µM | > 100 | > 100 µM | > 100 | > 100 µM | > 100 | > 100 µM | > 100 | – | – | – | – | – | – | – | – | – |
| COc1ccc2c(c1)c(-c1nc(-c3cn(C)c4ccncc34)cs1)cn2C | – | – | 3.38 | 3.79 µM | 3.41 | – | 4.49 | 3.17 µM | – | 1.89 | 1.96 | 1.84 | 1.96 | 1.58 | – | – | – | – |
| O=C1c2ccccc2C(=O)N1CCc1ncc(-c2ccccc2)[nH]1 | – | – | > 100 | – | > 100 | > 100 µM | > 100 | > 100 µM | > 100 | – | – | – | – | – | – | – | – | – |
| COc1ccc(CC(=O)NCCc2ccc(OC)c(OC)c2OC)cc1 | > 100 µM | – | > 100 | – | > 100 | > 100 µM | – | > 100 µM | > 100 | – | – | – | – | – | – | – | – | – |
| c1ccc(SC(Sc2ccccc2)=C2CCC2)cc1 | > 100 µM | > 100 µM | – | > 100 µM | > 100 | > 100 µM | > 100 | > 100 µM | > 100 | – | – | – | – | – | – | – | – | – |
| O=C1c2ccccc2-c2c3c(cc4ccnc1c24)OCO3 | 29.3 µM and 54.4 µM | 58.4 µM and 15 µM | 60.1 | 39.9 µM and 37.1 µM | > 100 | 33.3 µM and 33.6 µM | 15.6 | 23.9 µM and 14.8 µM | – | – | – | – | – | – | – | – | – | – |
| NC(=S)N1N=C2CCCCCC[C@@H]2[C@H]1c1ccccc1 | 45 µM | > 100 µM | > 100 | – | > 100 | > 100 µM | 51.7 | > 100 µM | – | – | – | – | – | – | – | – | – | – |
| COc1ccc(N2C(=O)C3CC(c4ccc(Br)cc4)c4c([nH]c5ccccc45)C3C2=O)cc1 (stereo not given) | > 100 µM | 16.3 µM | – | 29.3 µM | > 100 | 16.1 µM | > 100 | 27.1 µM | – | – | – | – | – | – | – | – | – | – |
| Nc1ncc(-c2ccc3ncnc(Nc4cccc(Cl)c4)c3c2)cn1 | – | – | – | 0.0974 µM | > 100 | – | – | > 100 µM | – | – | 0.00741 | 4.79 | 0.525 | 0.452 | 0.206 | 0.268 | – | – |
| Cc1ccc(/C=C/C(=O)c2ccc(Cl)c(Cl)c2)cc1 | – | > 100 µM | > 100 | – | > 100 | > 100 µM | > 100 | > 100 µM | > 100 | – | – | – | – | – | – | – | – | – |
| CCN(CC)CCN(CC)CC.CCN(CC)CCN(CC)CC.[Cu+2].[Cu+2].[O-][Cl+3]([O-])([O-])[O-].[OH3+].[OH3+] | > 100 µM | 45.7 µM | – | > 100 µM | 34.2 | > 100 µM | > 100 | > 100 µM | > 100 | – | > 100 | 18.2 | 30.8 | > 100 | 83.2 | > 100 | 14.4 | 40.2 |
| O=C1Nc2c(Cl)cc(Cl)cc2/C1=N/N=C/c1ccco1 | – | 35 µM | > 100 | > 100 µM | > 100 | > 100 µM | > 100 | 55.4 µM | > 100 | – | – | – | – | – | – | – | – | – |
| CCOC(=O)C12CCCC1(O)N(NC(=O)OC)C(C)=C2C(=O)OC (stereo not given) | > 100 µM | > 100 µM | > 100 | > 100 µM | > 10 | > 100 µM | > 100 | > 100 µM | – | – | – | – | – | – | – | – | – | – |
| CC(C)(C)C(=O)N1C(C(=O)O)Cc2ccccc2[C@@H]1Cc1ccccc1 (stereo not given in full) | > 100 µM | – | > 100 | > 100 µM | > 100 | > 100 µM | > 100 | – | – | – | – | – | – | – | – | – | – | – |
| Cc1cccc(-c2nnc3s/c(=C\c4ccc(N(C)C)cc4)c(=O)n23)c1 | > 100 µM | > 100 µM | > 100 | > 100 µM | > 100 | > 100 µM | > 100 | > 100 µM | – | – | – | – | – | – | – | – | – | – |
| O=C1CCCCCCC2=C1C(Sc1ccccc1)CC2 (stereo not given) | 95.5 µM | 30.7 µM | – | – | > 100 | 67.8 µM | 36.2 | 92.1 µM | 79.3 | – | – | – | – | – | – | – | – | – |
| CC(=O)OCc1c(O)c2c([nH]c1=O)CCc1ccccc1-2 | > 350 µM | 131 µM | 197 | 182 µM | 109 | 110 µM | 210 | – | > 350 | – | – | – | – | – | – | – | – | – |
| Cc1ccc(NCC2(/N=C/c3ccccc3)OC(CO)C(O)C2O)cc1 (stereo not given) | > 100 µM | – | > 100 | > 100 µM | > 100 | > 100 µM | 64.7 | > 100 µM | > 100 | – | – | – | – | – | – | – | – | – |
| CN(C)c1ccc(/C=c2\sc3nnc(-c4ccco4)n3c2=O)cc1 | > 100 µM | > 100 µM | > 100 | > 100 µM | > 100 | > 100 µM | > 100 | > 100 µM | – | – | – | – | – | – | – | – | – | – |
